Reference: the supplement of paper PMC6045584
± gives the standard deviation of the averaged measurements.

Tests used:
[1] = compound: CC(=O)NCC(=O)N1[C@@H]2CC[C@H]1c1ccc(Nc3ncc(C(F)(F)F)c(NC4CCC4)n3)cc12; assay: surviving fraction relative to DMSO-only wells; higher = less growth inhibition; conditions: exposure time: 5 days
In short: (§1)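 A line counted only if its three screens reached replicate Pearson r >0.7 and median Z' >0.3. Tumour cells in log phase were seeded at 250–500 per well in 384-well plates and, after 24 hours, kept in continuous contact with inhibitors at 0.5, 1, 5, 10, 50, 100, 500 and 1000 nM for five days. Surviving fraction was taken from CellTiter-Glo luminescence relative to the median of DMSO-only wells.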

[2] = compound: T1, CC(=O)O[C@H]1C(=O)[C@@]2(C)[C@H]([C@H](OC(=O)c3ccccc3)[C@]3(O)C[C@H](OC(=O)[C@H](O)[C@@H](NC(=O)c4ccccc4)c4ccccc4)C(C)=C1C3(C)C)[C@]1(OC(C)=O)CO[C@@H]1C[C@@H]2O [PACLITAXEL]; assay: as above; conditions: exposure time: 5 days
In short: as §1

[3] = compound: CC(=O)c1c(C)c2cnc(Nc3ccc(N4CCNCC4)cn3)nc2n(C2CCCC2)c1=O; assay: as above; conditions: exposure time: 5 days
In short: as §1

[4] = compound: T2, CC[C@@]1(O)C(=O)OCc2c1cc1n(c2=O)Cc2cc3ccccc3nc2-1 [CAMPTOTHECIN]; assay: as above; conditions: exposure time: 5 days
In short: as §1

[5] = compound: T3, COCC[n+]1c2c(n(Cc3cnccn3)c1C)C(=O)c1ccccc1C2=O [YM155]; assay: as above; conditions: exposure time: 5 days
In short: as §1

[6] = compound: T4, COc1cc2ncnc(Nc3ccc(F)c(Cl)c3)c2cc1OCCCN1CCOCC1 [GEFITINIB]; assay: as above; conditions: exposure time: 5 days
In short: as §1

[7] = compound: T5, C[C@]1(O)C[C@@H](c2nc(-c3ccc4ccc(-c5ccccc5)nc4c3)c3c(N)nccn32)C1 [OSI-906]; assay: as above; conditions: exposure time: 5 days
In short: as §1

[8] = compound: T6, Cc1ccc(-c2cc(C(F)(F)F)nn2-c2ccc(S(N)(=O)=O)cc2)cc1 [CELECOXIB]; assay: as above; conditions: exposure time: 5 days
In short: as §1

[9] = compound: T7, O=C(O)C1(C(=O)O)CCC1.[NH2-].[NH2-].[Pt+2] [CARBOPLATIN]; assay: as above; conditions: exposure time: 5 days
In short: as §1

[10] = compound: CC(=O)NCC(=O)N1[C@@H]2CC[C@H]1c1ccc(Nc3ncc(C(F)(F)F)c(NC4CCC4)n3)cc12; assay: area under dose-response curve of surviving fraction (unscaled, Aref=0) (surviving fraction x log10(nM)); higher = more resistant; conditions: exposure time: 5 days; dose range 0.5-1000 nM
In short: (§2)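 Tumour cell lines in 384-well plates were exposed for five days to eight inhibitor concentrations from 0.5 to 1000 nM. Viability was read by CellTiter-Glo luminescence, normalised to DMSO-only wells, in three screens per line. Dose-response survival curves were fitted to surviving fractions by 3-parameter logistic regression in the drc R package. Area under the curve is the unscaled activity area (Aref = 0) over log10 dose.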

[11] = compound: T1, PACLITAXEL; assay: as above; conditions: exposure time: 5 days; dose range 0.5-1000 nM
In short: as §2

[12] = compound: CC(=O)c1c(C)c2cnc(Nc3ccc(N4CCNCC4)cn3)nc2n(C2CCCC2)c1=O; assay: as above; conditions: exposure time: 5 days; dose range 0.5-1000 nM
In short: as §2

[13] = compound: T2, CAMPTOTHECIN; assay: as above; conditions: exposure time: 5 days; dose range 0.5-1000 nM
In short: as §2

[14] = compound: T3, YM155; assay: as above; conditions: exposure time: 5 days; dose range 0.5-1000 nM
In short: as §2

[15] = compound: T4, GEFITINIB; assay: as above; conditions: exposure time: 5 days; dose range 0.5-1000 nM
In short: as §2

[16] = compound: T5, OSI-906; assay: as above; conditions: exposure time: 5 days; dose range 0.5-1000 nM
In short: as §2

[17] = compound: T6, CELECOXIB; assay: as above; conditions: exposure time: 5 days; dose range 0.5-1000 nM
In short: as §2

[18] = compound: T7, CARBOPLATIN; assay: as above; conditions: exposure time: 5 days; dose range 0.5-1000 nM
In short: as §2

LNCAP PROSTATE
surviving fraction ([1]; 0.5 nM): 0.859 ± 0.059
surviving fraction ([1]; 1 nM): 0.872 ± 0.052
surviving fraction ([1]; 5 nM): 0.77 ± 0.08
surviving fraction ([1]; 10 nM): 0.893 ± 0.19
surviving fraction ([1]; 50 nM): 0.416 ± 0.044
surviving fraction ([1]; 100 nM): 0.46 ± 0.046
surviving fraction ([1]; 500 nM): 0.689 ± 0.0089
surviving fraction ([1]; 1000 nM): 0.664 ± 0.097
surviving fraction ([2]; 0.5 nM): 0.531 ± 0.04
surviving fraction ([2]; 1 nM): 0.358 ± 0.086
surviving fraction ([2]; 5 nM): 0.054 ± 0.015
surviving fraction ([2]; 10 nM): 0.0533 ± 0.004
surviving fraction ([2]; 50 nM): 0.0417 ± 0.0015
surviving fraction ([2]; 100 nM): 0.0347 ± 0.0038
surviving fraction ([2]; 500 nM): 0.0387 ± 0.0021
surviving fraction ([2]; 1000 nM): 0.0477 ± 0.0055
surviving fraction ([3]; 0.5 nM): 0.953 ± 0.0097
surviving fraction ([3]; 1 nM): 0.975 ± 0.087
surviving fraction ([3]; 5 nM): 0.854 ± 0.13
surviving fraction ([3]; 10 nM): 0.857 ± 0.11
surviving fraction ([3]; 50 nM): 0.952 ± 0.15
surviving fraction ([3]; 100 nM): 1.1 ± 0.13
surviving fraction ([3]; 500 nM): 0.961 ± 0.079
surviving fraction ([3]; 1000 nM): 0.945 ± 0.16
surviving fraction ([4]; 0.5 nM): 0.98 ± 0.035
surviving fraction ([4]; 1 nM): 0.802 ± 0.047
surviving fraction ([4]; 5 nM): 0.254 ± 0.017
surviving fraction ([4]; 10 nM): 0.164 ± 0.01
surviving fraction ([4]; 50 nM): 0.0637 ± 0.0064
surviving fraction ([4]; 100 nM): 0.0507 ± 0.0067
surviving fraction ([4]; 500 nM): 0.023 ± 0.0035
surviving fraction ([4]; 1000 nM): 0.0203 ± 0.0011
surviving fraction ([5]; 0.5 nM): 0.92 ± 0.085
surviving fraction ([5]; 1 nM): 0.943 ± 0.033
surviving fraction ([5]; 5 nM): 0.87 ± 0.097
surviving fraction ([5]; 10 nM): 0.978 ± 0.1
surviving fraction ([5]; 50 nM): 0.227 ± 0.032
surviving fraction ([5]; 100 nM): 0.069 ± 0.0044
surviving fraction ([5]; 500 nM): 0.0267 ± 0.0055
surviving fraction ([5]; 1000 nM): 0.0267 ± 0.0015
surviving fraction ([6]; 0.5 nM): 1.1 ± 0.22
surviving fraction ([6]; 1 nM): 0.915 ± 0.067
surviving fraction ([6]; 5 nM): 0.9827 ± 0.0059
surviving fraction ([6]; 10 nM): 0.998 ± 0.043
surviving fraction ([6]; 50 nM): 0.939 ± 0.032
surviving fraction ([6]; 100 nM): 0.947 ± 0.03
surviving fraction ([6]; 500 nM): 1.03 ± 0.08
surviving fraction ([6]; 1000 nM): 0.947 ± 0.12
surviving fraction ([7]; 0.5 nM): 1.12 ± 0.058
surviving fraction ([7]; 1 nM): 1.07 ± 0.095
surviving fraction ([7]; 5 nM): 1.07 ± 0.036
surviving fraction ([7]; 10 nM): 1.11 ± 0.018
surviving fraction ([7]; 50 nM): 0.991 ± 0.12
surviving fraction ([7]; 100 nM): 1.05 ± 0.1
surviving fraction ([7]; 500 nM): 1.04 ± 0.032
surviving fraction ([7]; 1000 nM): 1.06 ± 0.026
surviving fraction ([8]; 0.5 nM): 1.02 ± 0.042
surviving fraction ([8]; 1 nM): 0.956 ± 0.067
surviving fraction ([8]; 5 nM): 0.986 ± 0.057
surviving fraction ([8]; 10 nM): 1.01 ± 0.081
surviving fraction ([8]; 50 nM): 0.919 ± 0.012
surviving fraction ([8]; 100 nM): 0.998 ± 0.083
surviving fraction ([8]; 500 nM): 0.885 ± 0.057
surviving fraction ([8]; 1000 nM): 0.94 ± 0.065
surviving fraction ([9]; 0.5 nM): 1.02 ± 0.043
surviving fraction ([9]; 1 nM): 0.919 ± 0.079
surviving fraction ([9]; 5 nM): 0.981 ± 0.023
surviving fraction ([9]; 10 nM): 1.03 ± 0.086
surviving fraction ([9]; 50 nM): 1.09 ± 0.031
surviving fraction ([9]; 100 nM): 1.04 ± 0.046
surviving fraction ([9]; 500 nM): 1 ± 0.18
surviving fraction ([9]; 1000 nM): 0.977 ± 0.077
area under dose-response curve [10]: 2.3
area under dose-response curve [11]: 0.354
area under dose-response curve [12]: 3.12
area under dose-response curve [13]: 0.813
area under dose-response curve [14]: 1.82
area under dose-response curve [15]: 3.19
area under dose-response curve [16]: 3.5
area under dose-response curve [17]: 3.19
area under dose-response curve [18]: 3.35
